From ChEMBL document CHEMBL3616438, “Molecular modeling studies and synthesis of novel quinoxaline derivatives with potential anticancer activity as inhibitors of c-Met kinase” (Bioorg Med Chem, 2015) come the findings set out here.

What all share (assay type): functional, cell-based
Assay [1] concerns MCF7. Kind of assay: Cytotoxicity against human MCF7 cells assessed as inhibition of cell viability after 72 hrs by SRB assay.
Assay [2] relates to NCI-H460. Kind of assay: Cytotoxicity against human NCI-H460 cells assessed as inhibition of cell viability after 72 hrs by SRB assay.
Assay [3] has as its system SF-268. Kind of assay: Cytotoxicity against human SF268 cells assessed as inhibition of cell viability after 72 hrs by SRB assay.

Converted amounts (≈) assume the structure as drawn.

Consider `O=c1[nH]c2ccc(Br)cc2nc1/C=C/c1ccc(Br)cc1`, for which the IC50 worked out at 0.03223 mg/L (≈ 0.0794 µM) in assay [1], 0.03632 mg/L (≈ 0.0894 µM) in assay [2] and 0.04066 mg/L (≈ 0.1 µM) in assay [3].
For `O=c1[nH]c2ccc(Br)cc2nc1/C=C/c1ccc(O)cc1` the same measures were 0.02281 mg/L (≈ 0.0665 µM), 0.02281 mg/L (≈ 0.0665 µM) and 0.02283 mg/L (≈ 0.0665 µM).
For `Cc1ccc(/C=C/c2nc3cc(Br)ccc3[nH]c2=O)cc1` the same measures were 0.02221 mg/L (≈ 0.0651 µM), 0.00812 mg/L (≈ 0.0238 µM) and 0.0168 mg/L (≈ 0.0492 µM).
For `COc1ccc(/C=C/c2nc3cc(Br)ccc3[nH]c2=O)cc1` the same measures were 0.06 mg/L (≈ 0.168 µM), 0.06 mg/L (≈ 0.168 µM) and 0.2 mg/L (≈ 0.56 µM).
For the compound `CCOC(=O)Cn1c(=O)c(C)nc2cc(Br)ccc21`, the IC50 in assay [1] stood at 0.0224 mg/L (≈ 0.0689 µM); in assay [2], 0.01042 mg/L (≈ 0.032 µM); in assay [3] it was 0.00863 mg/L (≈ 0.0265 µM).
For `Cc1nc2cc(Br)ccc2n(CC(=O)NN)c1=O` the same measures were 0.01 mg/L (≈ 0.0321 µM), 0.02 mg/L (≈ 0.0643 µM) and 0.06 mg/L (≈ 0.193 µM).
For `Cc1nc2cc(Br)ccc2nc1N1CCCCC1` the same measures were 0.03361 mg/L (≈ 0.11 µM), 0.04032 mg/L (≈ 0.132 µM) and 0.03044 mg/L (≈ 0.0994 µM).
For `Cc1nc2cc(Br)ccc2nc1Nc1ccc(S(=O)(=O)N2CCCCC2)cc1` the same measures were 0.00162 mg/L (≈ 0.00351 µM), 0.67 mg/L (≈ 1.45 µM) and 0.0018 mg/L (≈ 0.0039 µM).
In the case of `Cc1nc2cc(Br)ccc2nc1NN`, the IC50 in assay [1] was determined as 0.02427 mg/L (≈ 0.0959 µM); in assay [2], 0.02062 mg/L (≈ 0.0815 µM); in assay [3], 0.01682 mg/L (≈ 0.0665 µM).
For `Cc1cc(C)n(-c2nc3ccc(Br)cc3nc2C)n1` the same measures were 0.02355 mg/L (≈ 0.0742 µM), 0.0346 mg/L (≈ 0.109 µM) and 0.04541 mg/L (≈ 0.143 µM).
For `Cc1nc2cc(Br)ccc2n2nnnc12` the same measures were 0.03309 mg/L (≈ 0.125 µM), 0.0208 mg/L (≈ 0.0788 µM) and 0.0203 mg/L (≈ 0.0769 µM).
As for `Cc1nc2cc(Br)ccc2nc1Sc1ccccc1`, the IC50 is 0.01222 mg/L (≈ 0.0369 µM) in assay [1], 0.01842 mg/L (≈ 0.0556 µM) in assay [2] and 0.01816 mg/L (≈ 0.0548 µM) in assay [3].
`Cc1nc2cc(Br)ccc2nc1Oc1ccccc1N`: the IC50 in assay [1] was 0.02 mg/L (≈ 0.0606 µM); in assay [2] it was 0.03 mg/L (≈ 0.0909 µM); in assay [3], 0.06 mg/L (≈ 0.182 µM).
For `Cc1nc2cc(Br)ccc2nc1Oc1ccc(N)cc1` the same measures were 0.81 mg/L (≈ 2.45 µM), 0.52 mg/L (≈ 1.57 µM) and 0.08 mg/L (≈ 0.242 µM).
With `Cc1nc2cc(Br)ccc2nc1Oc1ccc(/N=C\c2ccc(Cl)cc2)cc1`, the IC50 stood at 0.08 mg/L (≈ 0.177 µM) in assay [1], 0.08 mg/L (≈ 0.177 µM) in assay [2] and 0.02 mg/L (≈ 0.0442 µM) in assay [3].
Consider `Cc1nc2cc(Br)ccc2nc1Oc1ccc(C=O)cc1`, for which the IC50 was found to be 0.03278 mg/L (≈ 0.0955 µM) in assay [1], 0.02845 mg/L (≈ 0.0829 µM) in assay [2] and 0.0405 mg/L (≈ 0.118 µM) in assay [3].
For `Cc1nc2cc(Br)ccc2nc1Oc1ccc(/C=N\c2ccc(Cl)cc2)cc1`, the IC50 in assay [1] was determined as 0.01263 mg/L (≈ 0.0279 µM); in assay [2], 0.01866 mg/L (≈ 0.0412 µM); in assay [3], 0.03043 mg/L (≈ 0.0672 µM).
Consider `COc1cccc2c1C(=O)c1c(O)c3c(c(O)c1C2=O)C[C@@](O)(C(=O)CO)C[C@@H]3O[C@H]1C[C@H](N)[C@H](O)[C@H](C)O1` [DOXORUBICIN], for which the IC50 in assay [1] was determined as 0.04 mg/L (≈ 0.0736 µM); in assay [2], 0.09 mg/L (≈ 0.166 µM); in assay [3], 0.09 mg/L (≈ 0.166 µM).
